Results as given in paper PMC12263422, “Cryo-EM structure of the human THIK-1 K2P K^+ channel reveals a lower Y gate regulated by lipids and anesthetics” (Nature Structural & Molecular Biology, 2025).
Values joined by “and” are separate entries in the source; they are usually repeats but may differ in a detail not shown here. Identical values can stand only once. Like-named read-outs stand apart in the source and are kept apart here.

Biological target: T1, Human K2P13.1 THIK-1 (WT) (Homo sapiens, UniProt Q9HB14)
T1 construct: expressed in transfected cells; host or cells: Xenopus oocytes (mRNA injection)
T1 sequence (Q9HB14 1-408): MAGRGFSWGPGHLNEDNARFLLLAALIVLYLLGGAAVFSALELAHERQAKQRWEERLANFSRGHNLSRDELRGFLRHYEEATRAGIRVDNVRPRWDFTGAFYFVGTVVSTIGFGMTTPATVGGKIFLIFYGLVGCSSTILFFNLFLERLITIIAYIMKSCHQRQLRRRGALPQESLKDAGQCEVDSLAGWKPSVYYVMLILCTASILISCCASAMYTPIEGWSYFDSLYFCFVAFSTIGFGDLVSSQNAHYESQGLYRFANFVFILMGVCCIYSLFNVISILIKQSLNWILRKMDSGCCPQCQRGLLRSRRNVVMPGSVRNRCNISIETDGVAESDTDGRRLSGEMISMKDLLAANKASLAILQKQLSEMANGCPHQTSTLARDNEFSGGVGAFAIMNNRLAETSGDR
Assay: Macroscopic inside-out excised patch recordings from Xenopus oocytes expressing WT THIK-1; compounds applied to the intracellular side
Type: cell-based
From the text: Human K2P13.1 THIK-1 (GenBank accession number: NM_022054) and human K2P12.1 THIK-2 (NM_022055.1) were used in this study. For functional expression studies, the respective K^+ channel subtype coding sequences were subcloned into the oocyte expression vector pSGEM or the dual-purpose expression vector pFAW[41] and verified by sequencing. All mutant channels were obtained by site-directed mutagenesis and verified by sequencing. To increase surface expression and macroscopic currents, measurements of THIK-2 channels used a mutated ER retention motif, (R11A R12A R14A R15A R16A; THIK-2*)[20]. Vector DNA was linearized with NheI or MluI, and mRNA was synthesized in vitro using the SP6 or T7 AmpliCap Max High Yield Message Maker Kit (Cellscript, USA) or HiScribe T7 ARCA mRNA Kit (New England Biolabs).
Two-electrode voltage–clamp (TEVC) studies were performed in Xenopus oocytes. All animal use conformed to the Guide for the Care and Use of Laboratory Animals (NIH Publication 85–23), and all experiments using Xenopus toads were approved by the local ethics panels. Oocytes were stored at 17 °C in ND96 recording solution composed of (in mM): 96 NaCl, 2 KCl, 1.8 CaCl2, 1 MgCl2, 5 HEPES (pH 7.5 adjusted with NaOH and HCl), supplemented with Na-pyruvate (275 mg L^–1), theophylline (90 mg L^–1) and gentamicin (50 mg L^–1). Oocytes were injected with 1 ng mRNA for WT or mutant channels, and were incubated for 24–48 h at 17 °C. Two-electrode voltage clamp recordings were then performed as previously described[42],[43]. For macroscopic patch–clamp measurements, oocytes were obtained as described above incubated at 17 °C in a solution containing (mM): 54 NaCl, 30 KCl, 2.4 NaHCO3, 0.82 MgSO4 ×7 H2O, 0.41 CaCl2, 0.33 Ca(NO3)2 ×4 H2O and 7.5 TRIS (pH 7.4 adjusted with NaOH and HCl) for 1–4 days before use. Excised patch recordings in inside-out configuration conditions were performed at room temperature. Patch pipettes were made from thick-walled borosilicate glass GB 200TF-8P (Science Products), had resistances of 0.2–0.5 MΩ (tip diameter, 10–25 µm) and filled with a pipette solution (in mM): 120 KCl, 10 HEPES and 3.6 CaCl2 (pH 7.4 adjusted with KOH and HCl). Intracellular bath solutions and compounds were applied to the cytoplasmic side of excised patches for the various K^+ channels through a gravity flow multi-barrel pipette system. The intracellular solution had the following composition (in mM): 120 KCl, 10 HEPES, 2 EGTA and 1 pyrophosphate (pH adjusted with KOH and HCl). Currents were recorded with an EPC10 amplifier (HEKA Electronics) and sampled at 10 kHz or higher, with filtering set to 3 kHz (–3 dB) or higher, as appropriate for sampling rate. For measurements of GPCR activation, whole-cell currents were recorded for THIK-1 in transiently transfected HEK-293 cells. Cells were stimulated by a ramp protocol between −100 and +60 mV (holding potential, −80 mV). The pipette solution was composed of (in mM): 140 KCl, 2 MgCl2, 1 CaCl2, 2.5 EGTA and 10 HEPES (pH 7.3 adjusted with KOH and HCl). The extracellular bath solution had the following composition (in mM): 135 NaCl, 5 KCl, 2 MgCl2, 2 CaCl2, 10 glucose and 10 HEPES pH (pH 7.3 adjusted with NaOH and HCl). Oxotremorine M (Oxo-M) was added to extracellular bath solution to obtain the final concentration. Single-channel currents were recorded with an Axopatch 200B amplifier through a Digidata 1440A digitizer (Molecular Devices). Data were filtered at 2 kHz and recorded at a 200-kHz sampling rate with the program Clampex (Molecular Devices). Pipette solution and bath solution for cell-attached recordings contained (in mM): 140 KCl, 2 MgCl2, 1 CaCl2 and 10 HEPES (pH 7.4 adjusted with KOH and HCl). For inside-out recordings, the bath solution contained (in mM): 140 KCl, 2 MgCl2, 1 CaCl2 and 10 HEPES (pH 7.2 adjusted with KOH and HCl). All experiments were conducted at room temperature. […]

[1] = WT (unstimulated), individual recordings
[2] = WT, PIP2, individual recordings
[3] = WT, oleoyl-CoA, individual recordings

With CCCCC[N+](CCCCC)(CCCCC)CCCCC [TPenA, tetrapentylammonium] the “block of initial currents” value (0.5 mM TPenA, WT) was ~ 80%, the Normalized currents (THIK-1 WT (unstimulated), 0.01 µM TPenA) was 1.00 and the Normalized currents (THIK-1 WT (unstimulated), 0.1 µM TPenA) was 0.97. The Normalized currents (THIK-1 WT (unstimulated), 1 µM TPenA) was 0.94, the Normalized currents (THIK-1 WT (unstimulated), 10 µM TPenA) was 0.88 and the Normalized currents (THIK-1 WT (unstimulated), 15.6 µM TPenA) was 0.89. For the same molecule, the Normalized currents (THIK-1 WT (unstimulated), 62.5 µM TPenA) was 0.75, the Normalized currents (THIK-1 WT (unstimulated), 100 µM TPenA) was 0.71 and the Normalized currents (THIK-1 WT (unstimulated), 250 µM TPenA) was 0.49. The Normalized currents (THIK-1 WT (unstimulated), 1000 µM TPenA) was 0.21, the Normalized currents (THIK-1 WT (unstimulated), 4000 µM TPenA) was 0.09 and the Normalized currents (THIK-1 WT (unstimulated), 5000 µM TPenA) was 0.09. For the same molecule, the Normalized currents (TPenA 0.01 µM, THIK-1 WT (oleoyl-CoA, 5 µM)) was 1, the Normalized currents (TPenA 0.01 µM, THIK-1 WT (unstimulated)) was 1.00 and the Normalized currents (TPenA 0.1 µM, THIK-1 WT (PIP2)) was 1. It also gave a Normalized currents (TPenA 0.1 µM, THIK-1 WT (oleoyl-CoA, 5 µM)) of 0.87, a Normalized currents (TPenA 0.1 µM, THIK-1 WT (unstimulated)) of 0.97 and a Normalized currents (TPenA 1 µM, THIK-1 WT (PIP2)) of 0.86. The Normalized currents (TPenA 1 µM, THIK-1 WT (oleoyl-CoA, 5 µM)) was 0.81, the Normalized currents (TPenA 1 µM, THIK-1 WT (unstimulated)) was 0.94 and the Normalized currents (TPenA 4 µM, THIK-1 WT (PIP2)) was 0.54. It also gave a Normalized currents (TPenA 4 µM, THIK-1 WT (oleoyl-CoA, 5 µM)) of 0.48, a Normalized currents (TPenA 10 µM, THIK-1 WT (unstimulated)) of 0.88 and a Normalized currents (TPenA 15.6 µM, THIK-1 WT (PIP2)) of 0.26. The Normalized currents (TPenA 15.6 µM, THIK-1 WT (oleoyl-CoA, 5 µM)) was 0.22, the Normalized currents (TPenA 15.6 µM, THIK-1 WT (unstimulated)) was 0.89 and the Normalized currents (TPenA 62.5 µM, THIK-1 WT (PIP2)) was 0.1. It also gave a Normalized currents (TPenA 62.5 µM, THIK-1 WT (oleoyl-CoA, 5 µM)) of 0.09, a Normalized currents (TPenA 62.5 µM, THIK-1 WT (unstimulated)) of 0.75 and a Normalized currents (TPenA 100 µM, THIK-1 WT (unstimulated)) of 0.71. It also gave a Normalized currents (TPenA 250 µM, THIK-1 WT (PIP2)) of 0.03, a Normalized currents (TPenA 250 µM, THIK-1 WT (oleoyl-CoA, 5 µM)) of 0.04 and a Normalized currents (TPenA 250 µM, THIK-1 WT (unstimulated)) of 0.49. The Normalized currents (TPenA 1000 µM, THIK-1 WT (PIP2)) was 0.02, the Normalized currents (TPenA 1000 µM, THIK-1 WT (oleoyl-CoA, 5 µM)) was 0.02 and the Normalized currents (TPenA 1000 µM, THIK-1 WT (unstimulated)) was 0.21. The Normalized currents (TPenA 4000 µM, THIK-1 WT (PIP2)) was 0.01, the Normalized currents (TPenA 4000 µM, THIK-1 WT (oleoyl-CoA, 5 µM)) was 0.02 and the Normalized currents (TPenA 4000 µM, THIK-1 WT (unstimulated)) was 0.09. The Normalized currents (TPenA 5000 µM, THIK-1 WT (unstimulated)) was 0.09, the IC50 (TPenA IC50, THIK-1 WT, individual recordings) was 228 µM and 219 µM and 204 µM (2×) and 231 µM and 268 µM and 259 µM and 120 µM and 223 µM and 194 µM and 240 µM and 308 µM and the IC50 (TPenA IC50, THIK-1 WT, mean) was 225 µM. The IC50 (TPenA IC50, intracellular application to excised patches, WT unstimulated) was 225 ± 13 µM, the “τ of 1 mM TPenA block” value [1] was 14.000 s and 10.890 s and 8.250 s and 24.220 s and 9.660 s and 10.730 s and 11.070 s and 13.110 s and 12.070 s and 8.080 s and 8.510 s and the “τ of 1 mM TPenA release” value [1] was 76.730 s and 96.620 s and 52.570 s and 76.880 s and 103.780 s and 38.820 s and 101.050 s and 68.790 s and 74.350 s and 174.000 s and 73.800 s. For the same molecule, the “τ of 1 mM TPenA block” value (WT (unstimulated), mean) was 11.87 s, the “τ of 1 mM TPenA release” value (WT (unstimulated), mean) was 85.22 s and the “τblock (kinetics of TPenA block)” value (WT unstimulated) was 12 ± 1 s. For the same molecule, the “τrelease (kinetics of TPenA release)” value (WT unstimulated) was 85 ± 11 s, the “τ of 1 mM TPenA block” value [2] was 0.324 s and 0.375 s and 0.323 s and 0.215 s and 0.293 s and the “τ of 1 mM TPenA release” value [2] was 29.360 s and 29.550 s and 28.630 s and 28.550 s and 38.470 s and 25.420 s. The τblock (WT, PIP2 activated) was 0.31 ± 0.02 s, the τrelease (WT, PIP2 activated) was 30 ± 2 s and the “τ of 1 mM TPenA block” value (WT, PIP2 activated, mean) was 0.31 s. The “τ of 1 mM TPenA release” value (WT, PIP2 activated, mean) was 30.00 s, the τblock (WT, oleoyl-CoA activated) was 0.5 ± 0.1 s and the τrelease (WT, oleoyl-CoA activated) was 11 ± 1 s. For the same molecule, the “τ of 1 mM TPenA block” value (WT, oleoyl-CoA activated, mean) was 0.53 s, the “τ of 1 mM TPenA release” value (WT, oleoyl-CoA activated, mean) was 10.85 s and the “τ of 1 mM TPenA block” value [3] was 0.330 s and 0.560 s and 0.270 s and 0.340 s and 0.440 s and 0.930 s and 0.380 s and 0.720 s and 0.750 s and 0.360 s. For the same molecule, the “τ of 1 mM TPenA release” value [3] was 7.190 s and 6.440 s and 12.640 s and 12.180 s and 15.140 s and 8.860 s and 13.480 s, the inhibition at 15.6 µM (read-out: inhibition with 15.6 µM TPenA, WT channel in PIP2) was 74 ± 1% and the inhibition at 15.6 µM (read-out: inhibition with 15.6 µM TPenA, WT channel in oleoyl-CoA) was 78 ± 1%. It also gave an inhibition at 15.6 µM (read-out: inhibition with 15.6 µM TPenA, WT channel, unstimulated) of 11 ± 1%.
With FCOC(C(F)(F)F)C(F)(F)F [Sevoflurane, sevoflurane] the “Inhibition (%)” value (0.24 mM Sevoflurane, WT, individual recordings) was 52.54% and 40.05% and 49.45% and 28.56% and 58.12% and 60.68% and 50.30%, the inhibition at 240 µM (0.24 mM Sevoflurane, WT, mean) was 48.5% and the inhibition at 23 µM (THIK-1 WT, 0.023 mM sevoflurane) was 14.1%. It also gave an inhibition at 47 µM (THIK-1 WT, 0.047 mM sevoflurane) of 21.7%, an inhibition at 468 µM (THIK-1 WT, 0.468 mM sevoflurane) of 57.5% and an inhibition at 2340 µM (THIK-1 WT, 2.34 mM sevoflurane) of 79.5%.
